From patent publication US9708305B2, “Substituted 1,2,3,4-tetrahydroisoquinoline derivatives for the treatment of hormone-dependent diseases” (UNIVERSITÉ LAVAL, priority 2013, dated 2017)

Legend:
Saos-2 (ER+) cells = assay: Proliferative activity on Saos-2 (ER+) cells, phenol library; type: cell-based; conditions: 1 μM (stated for reference compounds); 7 days; control 100%
Method: Estrogens are known to have a beneficial effect on bones. […] The phenol derivatives 3′-EO-09 to 3′-EO-11 and 3′-EO-14 to 3′-EO-17 were tested on the osteoblast-like cell line Saos-2 to further evaluate their SERM capacity (FIG. 13A).
The osteoblast-like Saos-2 cells were maintained in culture flasks (175 cm^2 growth area, BD Falcon) at 37° C. in a 5% CO2 humidified atmosphere and grown in McCoy's 5A medium supplemented with 10% fetal bovine serum (FBS), penicillin (100 IU/mL) and streptomycin (100 μg/mL). Penicillin/streptomycin mix, L-Glutamine, normal and charcoal-stripped FBS were purchased from Wisent, Inc. (St-Bruno, QC, Canada), phenol-red free McCoy's 5A was purchased from PromoCell (Heidelberg, Germany). Chemicals tested were first dissolved in DMSO and subsequent dilutions were done in the cell culture medium. The final concentration of DMSO in the culture medium was 0.1% or less. For the proliferation assay, the […] FBS in the culture medium was replaced with 10% charcoal-stripped FBS. The cells were seeded in 96-well plates at a density of 10 000 cells/well and allowed to attach 24 h. After 24 h, the phenolic compounds diluted in culture medium were added to the wells and replaced every 2 days for 7 days of treatment. As reported above, MTS was used as an indirect colorimetric measurement of cell proliferation according to the manufacturer's instructions, except the plate were incubated 2 h instead of 4 h.

[1] = tested on: alkaline phosphatase activity in Saos-2 cells; assay: Alkaline phosphatase assay (Saos-2 cells), phenol library; type: cell-based; conditions: 1 nM; control (no treatment) fixed at 100%
Method: We also investigated the effect of selected phenol derivatives on alkaline phosphatase activity in Saos-2 cells (FIG. 13B).
Saos-2 cells were used similarly as reported in the cell proliferation assay. The cells were seeded at a density of 2 000 cells/well and treated for 3 days with each compound to be tested. The alkaline phosphatase (ALP) activity was measured using the Sensolyte® pNPP Alkaline Phosphatase Assay Kit *Colorimetric* (AnaSpec, Freemont, Calif.) following the manufacturer's protocol. Briefly, after three days of treatment, the cells were washed twice with washing buffer (provided with the kit) and lysed with 0.2% Triton X-100. The cell lysates were centrifuged and the supernatants were used to determine ALP activity. The supernatants were deposed in a 96-well plate and incubated for 30 minutes with a p-nitrophenyl phosphate solution (provided with the kit). The absorbance at 405 nm was measured with a Thermo max microplate reader (Molecular Devices, Sunnyvale, Calif.). The control (culture media+DMSO) is set to 100% of alkaline phosphatase activity.

[2] = tested on: uterus weight of ovariectomized mice (OVX); conditions: cited from earlier work
[3] = tested on: AR+ tissues (prostate and seminal vesicles); conditions: cited from earlier work
T-47D cells [4] = assay: T-47D cell proliferation (estrogenicity / cytotoxicity), MTS; type: cell-based
Method: The library of phenolic compounds described above was tested on estrogen-sensitive breast cancer T-47D cells.
In Table 1, cell proliferation of control cells is set to 100%. Results are expressed as mean±SD of one experiment in triplicate.
(§1) CellTitter 96® Aqueous One Solution Cell Proliferation Assay was used as an indirect colorimetric measurement of cell proliferation according to the manufacturer's instructions. Briefly, after the treatments, 20 μL of MTS solution was added to each well (100 μL) of the plates and incubated at 37° C. for 2 h (Saos-2) or 4 h (T-47D). The absorbance at 490 nm was then measured with a Thermo max microplate reader (Molecular Devices, Sunnyvale, Calif.). The control (culture media+DMSO) is set to 100% of cell proliferation.
(§2) The cells were plated in 96-well plates at a density of 3 000 cells/well and allowed to attach for 48 h. After this pre-incubation, the inhibitors and the reference compounds diluted in fresh culture media were added to the wells and replaced every 2 days for 7 days of treatment.

steroid sulfatase (STS) = target: T1, steroid sulfatase (STS) (Homo sapiens, UniProt P08842); assay: Steroid sulfatase (STS) inhibition, [3H]-E1S to [3H]-E1, homogenate of transfected HEK-293 cells; type: biochemical; conditions: transformation of E1S into E1 in homogenate of HEK-293 cells transfected with STS; read-out: Steroid Sulfatase Inhibition IC50
T1 construct: expressed in transfected cells; host or cells: HEK-293 cells stably transfected with STS (G418 selection), obtained from Dr. Van Luu-The; used as freeze-thaw homogenate
T1 sequence (P08842 22-583): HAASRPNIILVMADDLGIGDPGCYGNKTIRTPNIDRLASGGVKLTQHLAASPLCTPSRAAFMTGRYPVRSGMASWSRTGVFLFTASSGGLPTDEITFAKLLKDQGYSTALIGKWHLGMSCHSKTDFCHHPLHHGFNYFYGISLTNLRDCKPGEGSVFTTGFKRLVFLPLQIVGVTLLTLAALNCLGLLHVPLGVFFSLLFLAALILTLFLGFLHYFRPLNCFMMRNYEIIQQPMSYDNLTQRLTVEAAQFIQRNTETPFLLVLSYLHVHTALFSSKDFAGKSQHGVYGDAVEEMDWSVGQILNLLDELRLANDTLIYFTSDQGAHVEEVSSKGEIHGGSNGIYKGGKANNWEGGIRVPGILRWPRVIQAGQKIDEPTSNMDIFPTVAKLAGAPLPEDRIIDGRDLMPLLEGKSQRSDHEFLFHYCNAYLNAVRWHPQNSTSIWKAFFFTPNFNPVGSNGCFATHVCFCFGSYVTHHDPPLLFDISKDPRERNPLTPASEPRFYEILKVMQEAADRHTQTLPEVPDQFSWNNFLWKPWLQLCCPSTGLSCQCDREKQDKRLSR
Method: To test STS inhibition, we used homogenated HEK-293 cells overexpressing STS and evaluated the capacity of our compounds to inhibit the conversion of [^3H]-E1S into [^3H]-E1. […] This is outlined in FIG. 5.
An enzymatic assay previously described was used for the inhibition of the transformation of estrone sulfate (E1S) to estrone (E1) by STS.^72 Briefly, the transfected HEK-293 cells were homogenized by repeated (5 times) cycles of freezing (−80° C.) and thawing on ice (4° C.). The homogenates were then incubated for 2 h at 37° C. (shaking water bath) with or without inhibitors (0.01 μM-1 μM) in presence of [^3H]-E1S (9 nM), adjusted to 1 μM with E1S, in a Tris-acetate buffer (pH 7.4) containing 5 mM EDTA and 10% glycerol. After the incubation, 1 mL of xylene was added to each tube and the solutions were then centrifuged at 3000 rpm for 20 min to separate the organic ([^3H]-E1) and aqueous ([^3H]-E1S) phases. Once 500 μL of each phase was added to 10 mL of Biodegradable Counting Scintillant, the radioactivity of samples was recorded using a Wallac 1411 Liquid Scintillation Counter. The percentage of inhibition was determined by comparison with the control (buffer+homogenate+[^3H]-E1S) which was set to 0% of inhibition. IC50 value was obtained using GraphPad Prism 5 (GraphPad Software, La Jolla, Calif.).

T-47D cells [5] = assay: T-47D cell proliferation in presence of E2 (antiestrogenicity); type: cell-based
Method: as §1, §2

[6] = tested on: osteoblast-like Saos-2 cells; assay: Saos-2 cell proliferation, MTS; type: cell-based; conditions: for Bone cells Saos-2 (ER+) SERM effect Proliferative activity (%): in percentage of control (100%; 0.1 nM of estradiol)
Text: First, we wanted to evaluate their effect on cell proliferation. […] This is outlined in FIG. 8A. […] One of the main roles of osteoblasts in bone tissue is to construct a calcified extracellular matrix.^15 As such, bone formation is not principally due to osteoblasts proliferation but rather osteoblasts maturation into mature osteocytes. […] This is outlined in FIG. 8B.
as §1
Saos-2 cells were suspended in phenol-red free McCoy's 5A medium supplemented with 10% charcoal-stripped FBS, penicillin (100 IU/mL) and streptomycin (100 μg/mL). The cells were seeded in 96-well plates at a density of 3 000 cells/well and allowed to attach. After 24 h, the inhibitors and the reference compounds diluted in fresh culture media were added to the wells and replaced every 2 days for 7 days of treatment.

[7] = tested on: alkaline phosphatase (ALP) activity in Saos-2 cells; assay: Alkaline phosphatase (ALP) activity in Saos-2 cells; type: cell-based
Method: ALP is an enzyme that releases inorganic phosphate from different intracellular substrates such as pyrophosphate and pyridoxal 5′-phosphate.^63 The inorganic phosphate is used in the formation of hydroxyapatite crystals which are then inserted in the extracellular protein scaffold to form the solid part of bone tissue.
Saos-2 cells were treated similarly as reported in the cell proliferation assay. The cells were seeded at a density of 2 000 cells/well and were treated with the inhibitors and the reference compounds for 3 days. The alkaline phosphatase (ALP) activity was measured using Sensolyte® pNPP Alkaline Phosphatase Assay Kit *Colorimetric* (AnaSpec, Fremont, Calif.) following the manufacturer's protocol. Briefly, after the 3 days of treatment, the cells were washed twice with washing buffer (provided with the kit) and lysed with 0.2% Triton X-100. The cell lysates were centrifuged and the supernatants were used to determine the ALP activity. The supernatants were deposed in a 96-well plate and incubated 30 min with a p-nitrophenyl phosphate solution (provided with the kit). The absorbance at 405 nm was measured with a Thermo max microplate reader (Molecular Devices, Sunnyvale, Calif.). The control (culture media+DMSO) is set to 100% of alkaline phosphatase activity.

[8] = 1 μM, in % of control (100%; 0.1 nM of estradiol)

Compound: CCN(Cc1ccc(C(=O)N2CCc3ccc(O)cc3C2)cc1)Cc1ccccn1 [3′-EO-14]
- proliferation of Saos-2 cells (Saos-2 (ER+) cells): 140%
- ALP activity in Saos-2 cells [1]: 147%

Compound: CCN(Cc1ccc(F)cc1)Cc1ccc(C(=O)N2CCc3ccc(O)cc3C2)cc1 [3′-EO-17]
- ALP activity in Saos-2 cells [1]: 152%

Compound: COc1cc2c(cc1OS(N)(=O)=O)CC[C@@H]1[C@@H]2CC[C@@]2(C)[C@H]1CC[C@@]2(O)Cc1ccccc1 [EM-1913, 3-O-sulfamate 17α-benzyl-2-methoxy-estra-1,3,5(10)-trien-17β-ol]
- estrogenic activity: uterus weight of OVX mice ([2]; compound alone): did not stimulate the uterus weight
- stimulation of uterine weight induced by E1S in OVX mice ([2]; with E1S): effectively blocked
- androgenic effect in the absence of DHEAS ([3]; injected in the absence of DHEAS): No more harmful androgenic effect was detected
- effect of DHEAS on the weight of AR+ tissues (prostate and seminal vesicles) ([3]; with DHEAS): block the effect of DHEAS

Compound: Cl.O=C(c1ccc(OCCN2CCCCC2)cc1)c1c(-c2ccc(O)cc2)sc2cc(O)ccc12 [raloxifene, Raloxifene hydrochloride, reference compound]
- estrogenic activity on T-47D cells (T-47D cells [4]; 0.01 μM to 5 μM, 7 days): no estrogenic activity
- Breast cancer cells T-47D (ER+) Agonist activity (%) (T-47D cells [4]; [8]): 0%
- cytotoxicity on T-47D cells (T-47D cells [4]; 5 μM): induced some cytotoxicity
- IC50 (steroid sulfatase (STS)): > 1000 nM
- block of E2 stimulation of T-47D proliferation (T-47D cells [5]; 0.01 μM to 1 μM, E2 0.1 nM): able to block the E2 stimulation
- Breast cancer cells T-47D (ER+) Antagonist activity (%) (T-47D cells [5]; [8]): 96%
- cytotoxicity on T-47D cells in presence of E2 (T-47D cells [5]; 5 μM, E2 0.1 nM): some cytotoxicity
- Saos-2 cell proliferation, dose response ([6]; 1 nM to 1 μM, 7 days): apparent dose-dependent response
- Bone cells Saos-2 (ER+) SERM effect Proliferative activity (%) ([6]; 0.1 μM): 75%
- Bone cells Saos-2 (ER+) SERM effect Proliferative activity (%) ([6]; 1 μM): 83%
- Bone cells Saos-2 (ER+) SERM effect Alkaline phosphatase activity (%) ([7]; 0.1 nM): 86%
- stimulation of ALP activity in presence of ICI-164,384 or MPP + PHTPP ([7]; 0.1 nM compound, antagonists 1 μM, 3 days): completely blocked the stimulation
- proliferation of Saos-2 cells (Saos-2 (ER+) cells): 123%

Compound: CC/C(=C(\c1ccccc1)c1ccc(OCCN(C)C)cc1)c1ccccc1 [tamoxifen, reference compound]
- ALP activity in Saos-2 cells [1]: 143%
